Measured values reported in publication PMC10584170, “Machine learning-based phenotypic imaging to characterise the targetable biology of Plasmodium falciparum male gametocytes for the development of transmission-blocking antimalarials” (PLOS Pathogens, 2023).
Where two headings read alike, the source gives them in different places.

How the values were obtained:
[1] = tested on: P. falciparum female gametocytes; assay: P. falciparum Dual Gamete Formation Assay (PfDGFA), female readout (Pfs25-positive female gametes); type: cell-based, Plasmodium falciparum NF54
Outline: (§1)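 Read-outs are automated image counts of exflagellation centres (brightfield, 10 frames over 1 s) and Pfs25-positive female gametes (Cy3 fluorescence).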

[2] = tested on: P. falciparum male gametocytes; assay: P. falciparum Dual Gamete Formation Assay (PfDGFA), male readout (exflagellation); type: cell-based, Plasmodium falciparum NF54; conditions: for Activity: hit = >50% inhibition in male or female readout in at least 3 replicates, 0 = no class assigned
Outline: as §1

[3] = 2µM, 24h preincubation with gametocytes prior to induction of gametogenesis, average of replicates
[4] = 2µM, 24h preincubation with gametocytes prior to induction of gametogenesis, replicate R1
[5] = 2µM, 24h preincubation with gametocytes prior to induction of gametogenesis, replicate R3
[6] = 2µM, 24h preincubation with gametocytes prior to induction of gametogenesis, replicate R4
[7] = 2µM, 24h preincubation, number of replicates with >50% inhibition in the female readout
[8] = 2µM, 24h preincubation, number of replicates with >50% inhibition in the male readout
[9] = PfDGFA at 2µM, 24h preincubation with gametocytes prior to induction of gametogenesis, replicate R1
[10] = PfDGFA at 2µM, 24h preincubation with gametocytes prior to induction of gametogenesis, replicate R3
[11] = PfDGFA at 2µM, 24h preincubation with gametocytes prior to induction of gametogenesis, replicate R4
[12] = PfDGFA at 2µM, 24h preincubation, average of replicates
[13] = 2µM, 24h preincubation, hits selected on >50% inhibition in the female readout across replicates
[14] = 2µM, 24h preincubation, hits selected on >50% inhibition in the male readout across replicates
[15] = PfDGFA at 2µM, 24h preincubation
[16] = number of replicates with >50% inhibition in the female readout, 2µM
[17] = number of replicates with >50% inhibition in the male readout, 2µM
[18] = PfDGFA at 2µM, 24h preincubation with gametocytes, average of replicates
[19] = PfDGFA at 2µM, 24h preincubation with gametocytes, replicate R1
[20] = PfDGFA at 2µM, 24h preincubation with gametocytes, replicate R3
[21] = PfDGFA at 2µM, 24h preincubation with gametocytes, replicate R4

Compound | Average inhibition female (%) [1, 3] [%] | % inhibition female (individual replicates) R1 [1, 4] [%] | % inhibition female (individual replicates) R3 [1, 5] [%] | % inhibition female (individual replicates) R4 [1, 6] [%] | Average inhibition male (%) [2, 3] [%] | % inhibition male (individual replicates) R1 [2, 4] [%] | % inhibition male (individual replicates) R3 [2, 5] [%] | % inhibition male (individual replicates) R4 [2, 6] [%] | % inhibition female (individual replicates) R1 [1, 9] [%] | % inhibition female (individual replicates) R3 [1, 10] [%] | % inhibition female (individual replicates) R4 [1, 11] [%] | Average inhibition female (%) [1, 12] [%] | % inhibition male (individual replicates) R1 [2, 9] [%] | % inhibition male (individual replicates) R4 [2, 11] [%] | Average inhibition male (%) [2, 12] [%] | further results
CN(C)CCCNCc1cn(S(=O)(=O)c2ccccc2Cl)c2ccccc12.Cl [TCMDC-136302] | 50.5 | 52.5 | 48.5 | 54.4 | 39.6 | 57.4 | 42.5 | 62.3 | – | – | – | – | – | – | – | HitlevelF [1, 7]: 2; HitlevelM [2, 8]: 2
Cc1ccc(CON2C(N)=NC(N)=NC2(C)C)c(Cl)c1.Cc1ccc(CON2C(N)=NC(N)=NC2(C)C)cc1Cl [TCMDC-131625] | – | – | – | – | – | – | – | – | -4.8 | -23.0 | 21.6 | -0.55 | 26.3 | -18.5 | -5.6 | % inhibition male (individual replicates) R3 [2, 10]: -30.0%
CN(C)CCCNc1nccc(N(C)c2ccc(NC(=O)Nc3cc(C(F)(F)F)ccc3F)cc2)n1.O=C(O)C(F)(F)F [TCMDC-141633] | 13.3 | 14.0 | 9.3 | 15.1 | 62.2 | 40.8 | – | 63.9 | – | – | – | – | – | – | – | HitlevelF [1, 13]: 0; HitlevelM [2, 14]: 2; Activity [2, 15]: 0
C[C@H](Cc1ccc(S(=O)(=O)c2ccc(C[C@@H](C)NC[C@H](O)c3cccc(Cl)c3)cc2)cc1)NC[C@H](O)c1cccc(Cl)c1.Cl [TCMDC-131561] | 28.9 | 27.9 | 9.1 | 30.5 | 47.9 | 47.0 | 11.1 | 74.2 | – | – | – | – | – | – | – | HitlevelF [1, 7]: 0; HitlevelM [2, 8]: 2
CCCCCc1ccc(N2C(N)=NC(N)=NC2(C)C)cc1.Cl [TCMDC-137709] | 8.1 | 15.2 | -7.7 | 22.0 | 2.5 | 18.2 | 6.4 | -27.8 | – | – | – | – | – | – | – | HitlevelF [1, 13]: 0; HitlevelM [2, 14]: 0; Activity [2, 15]: 0
O=C(NC1CCN(Cc2ccccc2)CC1)c1cc(C(=O)NC2CCN(Cc3ccccc3)CC2)cc(C(=O)NC2CCN(Cc3ccccc3)CC2)c1 [TCMDC-124568] | – | – | – | – | – | – | – | – | – | – | – | – | – | – | – | Selectivity ratio F ([1]; HepG2 Tox50 versus female IC50): 10.00; inhibition at 2 µM ([1]; Plasmodium falciparum, PfDGFA at 2µM, 24h preincubation with gametocytes, average of replicates, read-out: Average inhibition female (%)): 37.6%; inhibition at 2 µM ([1]; Plasmodium falciparum, PfDGFA at 2µM, 24h preincubation with gametocytes, replicate R1, read-out: % inhibition female (individual replicates) R1): 24.6%; inhibition at 2 µM ([1]; Plasmodium falciparum, PfDGFA at 2µM, 24h preincubation with gametocytes, replicate R2, read-out: % inhibition female (individual replicates) R2): 60.5%; inhibition at 2 µM ([1]; Plasmodium falciparum, PfDGFA at 2µM, 24h preincubation with gametocytes, replicate R3, read-out: % inhibition female (individual replicates) R3): 22.2%; inhibition at 2 µM ([1]; Plasmodium falciparum, PfDGFA at 2µM, 24h preincubation with gametocytes, replicate R4, read-out: % inhibition female (individual replicates) R4): 43.3%; IC50 ([1]; Plasmodium falciparum, PfDGFA, 24 h incubation with gametocytes before induction, female gamete readout, read-out: Female IC50): > 10 µM; HitlevelF [1, 16]: 1; Selectivity Ratio M ([2]; HepG2 Tox50 versus male IC50): 12.97; inhibition at 2 µM ([2]; Plasmodium falciparum, PfDGFA at 2µM, 24h preincubation with gametocytes, average of replicates, read-out: Average inhibition male (%)): 80%; inhibition at 2 µM ([2]; Plasmodium falciparum, PfDGFA at 2µM, 24h preincubation with gametocytes, replicate R1, read-out: % inhibition male (individual replicates) R1): 85%; inhibition at 2 µM ([2]; Plasmodium falciparum, PfDGFA at 2µM, 24h preincubation with gametocytes, replicate R2, read-out: % inhibition male (individual replicates) R2): 82%; inhibition at 2 µM ([2]; Plasmodium falciparum, PfDGFA at 2µM, 24h preincubation with gametocytes, replicate R3, read-out: % inhibition male (individual replicates) R3): 68.9%; inhibition at 2 µM ([2]; Plasmodium falciparum, PfDGFA at 2µM, 24h preincubation with gametocytes, replicate R4, read-out: % inhibition male (individual replicates) R4): 84.2%; IC50 ([2]; Plasmodium falciparum, PfDGFA, 24 h incubation with gametocytes before induction, exflagellation readout, read-out: Male IC50): 7.71 µM; HitlevelM [2, 17]: 4
CNCCNCc1ccc(-c2ccc(-c3nc4cc(C(F)(F)F)ccc4[nH]3)cc2)cc1.O=C(O)C(F)(F)F [TCMDC-132833] | 17.0 | 21.1 | 25.6 | 19.1 | 23.6 | 9.5 | 12.3 | 50.2 | – | – | – | – | – | – | – | HitlevelF [1, 13]: 0; HitlevelM [2, 14]: 1; Activity [2, 15]: 0
O=C(c1ccc([N+](=O)[O-])o1)N1CCN(c2nc3c(F)cc(F)cc3s2)CC1 [TCMDC-125149] | 6.5 | 10.3 | -4.5 | 0.07 | 6.8 | 35.5 | -37.1 | -11.8 | – | – | – | – | – | – | – | HitlevelF [1, 13]: 0; HitlevelM [2, 14]: 0; Activity [2, 15]: 0
CCN(CC)S(=O)(=O)n1ncc2c3c(N)nc(N)nc3ccc21.Cl [TCMDC-137302] | – | – | – | – | – | – | – | – | 5.9 | -12.1 | -12.9 | -8.3 | 16.7 | -41.8 | 0.1 | % inhibition male (individual replicates) R3 [2, 10]: -8.5%
COc1ccc(CNC2CCN(C)CC2)cc1-c1ccc(S(=O)(=O)NCc2ccccc2)cc1.O=C(O)C(F)(F)F [TCMDC-132244] | – | – | – | – | – | – | – | – | – | – | – | – | – | – | – | Average inhibition female (%) [1, 18]: 25.2%; % inhibition female (individual replicates) R1 [1, 19]: 21.6%; % inhibition female (individual replicates) R3 [1, 20]: 8.8%; % inhibition female (individual replicates) R4 [1, 21]: 45.4%; HitlevelF [1, 16]: 0; Average inhibition male (%) [2, 18]: 63.1%; % inhibition male (individual replicates) R1 [2, 19]: 62.4%; % inhibition male (individual replicates) R3 [2, 20]: 51.6%; % inhibition male (individual replicates) R4 [2, 21]: 78.9%; HitlevelM [2, 17]: 4
Cc1ccc(Cc2c(C)nc3nc(N)nc(N)c3c2C)cc1.Cl [TCMDC-137657] | – | – | – | – | – | – | – | – | -6.6 | 8.8 | -7.7 | -3.5 | 13.2 | 13.4 | 14.9 | % inhibition male (individual replicates) R3 [2, 10]: 20.3%
CC(O)C1CCCCN1C(=O)c1ccc(-c2ccc(-c3nc4ccccc4[nH]3)s2)cc1 (stereo not shown) [TCMDC-132330] | – | – | – | – | – | – | – | – | 7.4 | -27.3 | 14.9 | -1.0 | 10.5 | 19.6 | 14.0 | % inhibition male (individual replicates) R3 [2, 10]: 7.6%
COc1ccc(CNC(=O)c2cnc3cc(-c4c(C)noc4C)ccc3c2Nc2ccccc2C(C)(C)C)cc1.Cl [TCMDC-136367] | – | – | – | – | – | – | – | – | -1.1 | -0.6 | 13.4 | 2.7 | -0.3 | -17.2 | -9.5 | –
CC(C(=O)OCCOCn1cnc2c(=O)[nH]c(N)nc21)N(C)C(=O)OC(C)(C)C (stereo not shown) [TCMDC-137343] | – | – | – | – | – | – | – | – | 1.2 | -8.6 | 4.1 | -0.55 | 2.6 | -43.6 | -14.6 | –
CN1CCN(CCNc2c3ccccc3nc3c2ccc2ccccc23)CC1.Cl [TCMDC-137723] | 18.4 | 9.6 | 26.6 | 23.3 | -12.0 | -27.6 | -0.85 | 0.03 | – | – | – | – | – | – | – | HitlevelF [1, 7]: 0; HitlevelM [2, 8]: 0
